From patent US10494332B2, “Protein tyrosine phosphatases or SHP2 inhibitors and uses thereof” (Indiana University Research and Technology Corporation, priority 2015, dated 2019)
Where two headings read alike, the source gives them in different places.

Assays:
Assay type in all cases: biochemical
HePTP = molecular target: T1, HePTP (Homo sapiens, UniProt P35236); assay: PTP inhibition assay (pNPP); conditions: […]; HePTP
T1 sequence (P35236 1-360): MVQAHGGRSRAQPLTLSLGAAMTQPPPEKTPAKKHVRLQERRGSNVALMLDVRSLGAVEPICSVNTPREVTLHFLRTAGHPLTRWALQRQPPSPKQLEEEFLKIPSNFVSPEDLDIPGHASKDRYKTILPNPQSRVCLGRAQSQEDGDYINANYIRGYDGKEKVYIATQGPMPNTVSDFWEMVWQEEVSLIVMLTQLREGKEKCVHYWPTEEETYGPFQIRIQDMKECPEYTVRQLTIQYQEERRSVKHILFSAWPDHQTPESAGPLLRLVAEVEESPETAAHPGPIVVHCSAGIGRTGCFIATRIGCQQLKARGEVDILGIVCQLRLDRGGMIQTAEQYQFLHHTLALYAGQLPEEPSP

LYP = molecular target: T2, LYP (Homo sapiens, UniProt Q9Y2R2); assay: PTP inhibition assay (pNPP)
T2 sequence (Q9Y2R2 1-807): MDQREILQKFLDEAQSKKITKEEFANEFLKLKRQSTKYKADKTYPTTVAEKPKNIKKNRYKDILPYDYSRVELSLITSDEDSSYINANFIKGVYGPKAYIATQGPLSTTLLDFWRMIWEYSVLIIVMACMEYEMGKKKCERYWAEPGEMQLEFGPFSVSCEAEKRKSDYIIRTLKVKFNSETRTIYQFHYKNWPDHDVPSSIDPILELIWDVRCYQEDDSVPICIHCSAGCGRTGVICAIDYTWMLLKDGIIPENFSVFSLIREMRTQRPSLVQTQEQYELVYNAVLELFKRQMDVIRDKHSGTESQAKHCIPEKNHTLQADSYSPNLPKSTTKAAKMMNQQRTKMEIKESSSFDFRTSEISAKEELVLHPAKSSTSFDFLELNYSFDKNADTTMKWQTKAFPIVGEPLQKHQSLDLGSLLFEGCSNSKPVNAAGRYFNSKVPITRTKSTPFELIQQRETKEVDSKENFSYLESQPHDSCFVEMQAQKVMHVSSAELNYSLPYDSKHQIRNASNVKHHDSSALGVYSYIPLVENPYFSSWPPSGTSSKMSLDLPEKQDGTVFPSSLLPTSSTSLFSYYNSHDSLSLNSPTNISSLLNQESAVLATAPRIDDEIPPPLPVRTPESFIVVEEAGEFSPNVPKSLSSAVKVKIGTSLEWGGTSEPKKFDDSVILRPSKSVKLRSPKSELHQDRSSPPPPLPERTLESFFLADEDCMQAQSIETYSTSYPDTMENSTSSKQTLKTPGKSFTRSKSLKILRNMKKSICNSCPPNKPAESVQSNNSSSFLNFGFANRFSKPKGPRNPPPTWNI

LMWPTP = molecular target: T3, LMWPTP (Homo sapiens, UniProt P24666); assay: PTP inhibition assay (pNPP)
T3 sequence (P24666 1-158): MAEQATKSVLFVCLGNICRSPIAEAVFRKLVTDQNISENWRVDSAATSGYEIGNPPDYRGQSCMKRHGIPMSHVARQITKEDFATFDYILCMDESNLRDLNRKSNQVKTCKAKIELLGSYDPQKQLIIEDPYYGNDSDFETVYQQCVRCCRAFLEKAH

SHP2 = molecular target: T4, SHP2 (Homo sapiens, UniProt Q06124); assay: SHP2 phosphatase inhibition assay (pNPP); conditions: read-out: IC50 SHP2
T4 sequence (Q06124 224-528): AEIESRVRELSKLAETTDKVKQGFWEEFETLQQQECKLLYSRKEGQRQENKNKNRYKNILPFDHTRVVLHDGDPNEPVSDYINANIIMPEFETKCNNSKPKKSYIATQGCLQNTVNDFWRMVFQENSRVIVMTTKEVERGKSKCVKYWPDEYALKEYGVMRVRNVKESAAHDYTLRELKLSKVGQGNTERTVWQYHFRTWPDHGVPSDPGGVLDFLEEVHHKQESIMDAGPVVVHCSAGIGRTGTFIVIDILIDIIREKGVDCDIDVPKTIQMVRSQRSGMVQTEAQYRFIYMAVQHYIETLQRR

PTP1B = molecular target: T5, PTP1B (Homo sapiens, UniProt P18031); assay: PTP inhibition assay (pNPP); conditions: pNPP at Km, pH 7.0, 25° C.
T5 sequence (P18031 1-435): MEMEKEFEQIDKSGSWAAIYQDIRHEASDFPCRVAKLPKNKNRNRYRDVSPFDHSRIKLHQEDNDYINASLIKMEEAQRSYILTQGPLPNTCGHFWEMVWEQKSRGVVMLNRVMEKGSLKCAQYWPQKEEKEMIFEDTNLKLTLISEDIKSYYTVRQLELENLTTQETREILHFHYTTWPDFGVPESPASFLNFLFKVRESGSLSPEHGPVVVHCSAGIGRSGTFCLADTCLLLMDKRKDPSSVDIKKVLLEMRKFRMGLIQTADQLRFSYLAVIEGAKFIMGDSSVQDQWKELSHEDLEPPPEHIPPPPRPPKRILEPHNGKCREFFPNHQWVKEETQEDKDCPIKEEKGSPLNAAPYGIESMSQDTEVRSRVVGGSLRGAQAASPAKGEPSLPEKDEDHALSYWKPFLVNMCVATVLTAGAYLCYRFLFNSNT

Laforin = molecular target: T6, Laforin (Homo sapiens, UniProt O95278); assay: PTP inhibition assay (pNPP); conditions: for IC50: pNPP at Km, pH 7.0, 25° C., read-out: IC50 Laforin
T6 sequence (O95278 1-331): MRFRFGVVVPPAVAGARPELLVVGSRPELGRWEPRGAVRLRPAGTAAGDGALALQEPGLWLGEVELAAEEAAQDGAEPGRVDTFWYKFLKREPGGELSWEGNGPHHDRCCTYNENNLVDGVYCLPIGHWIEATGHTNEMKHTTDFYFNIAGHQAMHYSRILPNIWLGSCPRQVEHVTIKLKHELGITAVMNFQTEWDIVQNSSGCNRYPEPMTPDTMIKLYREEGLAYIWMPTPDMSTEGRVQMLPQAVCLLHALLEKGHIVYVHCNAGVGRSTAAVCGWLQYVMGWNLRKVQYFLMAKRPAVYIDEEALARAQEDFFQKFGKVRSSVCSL

CD45 = molecular target: T7, CD45 (Homo sapiens, UniProt P08575); assay: PTP inhibition assay (pNPP); conditions: pNPP at Km, pH 7.0, 25° C.
T7 sequence (P08575 26-1306): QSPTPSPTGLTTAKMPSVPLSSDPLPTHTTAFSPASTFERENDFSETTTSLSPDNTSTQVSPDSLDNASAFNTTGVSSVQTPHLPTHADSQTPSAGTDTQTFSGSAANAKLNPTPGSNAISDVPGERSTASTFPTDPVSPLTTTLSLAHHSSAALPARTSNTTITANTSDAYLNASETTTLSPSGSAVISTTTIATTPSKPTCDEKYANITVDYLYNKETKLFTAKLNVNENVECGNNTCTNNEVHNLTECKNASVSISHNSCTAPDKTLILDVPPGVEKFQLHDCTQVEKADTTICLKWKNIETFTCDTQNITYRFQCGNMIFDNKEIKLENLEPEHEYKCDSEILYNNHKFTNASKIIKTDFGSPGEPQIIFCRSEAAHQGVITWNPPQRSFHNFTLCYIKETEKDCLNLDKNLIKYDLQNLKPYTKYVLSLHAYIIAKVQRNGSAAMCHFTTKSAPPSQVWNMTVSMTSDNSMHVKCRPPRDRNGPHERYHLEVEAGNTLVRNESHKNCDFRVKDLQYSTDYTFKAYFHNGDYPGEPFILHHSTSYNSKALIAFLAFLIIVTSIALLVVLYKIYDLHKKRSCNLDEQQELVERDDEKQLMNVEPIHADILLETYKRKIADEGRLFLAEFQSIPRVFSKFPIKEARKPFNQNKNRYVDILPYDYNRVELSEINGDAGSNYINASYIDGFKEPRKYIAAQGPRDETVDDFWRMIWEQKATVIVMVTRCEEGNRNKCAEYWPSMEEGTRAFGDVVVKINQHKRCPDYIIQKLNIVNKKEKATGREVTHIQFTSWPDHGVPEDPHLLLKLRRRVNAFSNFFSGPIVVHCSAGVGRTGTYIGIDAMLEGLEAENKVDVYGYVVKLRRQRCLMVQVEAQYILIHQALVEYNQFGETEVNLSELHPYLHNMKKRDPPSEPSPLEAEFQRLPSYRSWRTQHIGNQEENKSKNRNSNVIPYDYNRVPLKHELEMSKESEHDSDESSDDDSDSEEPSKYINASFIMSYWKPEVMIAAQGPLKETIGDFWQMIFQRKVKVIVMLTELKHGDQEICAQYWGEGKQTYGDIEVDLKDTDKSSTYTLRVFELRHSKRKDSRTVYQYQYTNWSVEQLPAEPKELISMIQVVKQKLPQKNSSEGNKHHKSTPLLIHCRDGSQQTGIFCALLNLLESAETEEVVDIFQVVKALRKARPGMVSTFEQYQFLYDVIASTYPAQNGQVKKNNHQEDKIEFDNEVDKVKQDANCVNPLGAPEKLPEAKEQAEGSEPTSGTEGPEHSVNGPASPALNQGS

SMILES	IC50 (HePTP) [µM]	IC50 (LYP; […], LYP) [µM]	IC50 (LMWPTP; […], LMWPTP) [µM]	IC50 (SHP2; […], SHP2) [µM]	IC50 (PTP1B) [µM]	IC50 (Laforin) [µM]	IC50 (LYP; pNPP at Km, pH 7.0, 25° C.) [µM]	IC50 (CD45) [µM]	IC50 (SHP2; pNPP at Km, pH 7.0, 25° C.) [µM]	IC50 (LMWPTP; pNPP at Km, pH 7.0, 25° C.) [µM]	Inhibition of Laforin at 100 μM (Laforin; 100 μM)
O=C(NNc1ccccc1)C(c1ccc(-c2ccccc2)cc1)S(=O)(=O)O (stereo not drawn) [Compound L319-16-N58]	20	20	32	22	–	–	–	–	–	–	–
O=C(O)C(c1ccc(-c2ccccc2)cc1)S(=O)(=O)O (stereo not drawn) [Compound L319-16]	11	5.19	> 100	25	–	–	–	–	–	–	–
O=C(Nc1nccs1)C(c1ccccc1)S(=O)(=O)O (stereo not drawn) [Compound L319N13]	–	–	–	–	> 100	8	> 100	> 100	> 100	–	–
O=C(Nc1nc(-c2ccccc2)cs1)C(c1ccccc1)S(=O)(=O)O (stereo not drawn) [Compound L319N14]	–	–	–	–	160	6	15	70	31	20	–
O=C(Nc1nc2c(Cl)cccc2s1)C(c1ccccc1)S(=O)(=O)O (stereo not drawn) [Compound L319N15-01]	–	–	–	–	70	2.2	22	–	41	4.6	–
Cc1cccc2sc(NC(=O)C(c3ccccc3)S(=O)(=O)O)nc12 (stereo not drawn) [Compound L319N15-02]	–	–	–	–	> 200	4	110	> 200	129	9.6	–
COc1cccc2sc(NC(=O)C(c3ccccc3)S(=O)(=O)O)nc12 (stereo not drawn) [Compound L319N15-03]	–	–	–	–	> 200	1.2	> 200	> 200	> 200	7.6	–
Cc1cc2nc(NC(=O)C(c3ccccc3)S(=O)(=O)O)sc2cc1C (stereo not drawn) [Compound L319N15-04]	–	–	–	–	> 200	1.1	90	> 200	112	4.8	–
O=C(Nc1nc2ccc(F)cc2s1)C(c1ccccc1)S(=O)(=O)O (stereo not drawn) [Compound L319N15-05]	–	–	–	–	> 200	1.7	150	> 200	173	4.2	–
O=C(Nc1nc2ccc(Cl)cc2s1)C(c1ccccc1)S(=O)(=O)O (stereo not drawn) [Compound L319N15-06]	–	–	–	–	80	2.3	23	130	30	5.6	–
O=C(Nc1nc2ccc(O[N+](=O)[O-])cc2s1)C(c1ccccc1)S(=O)(=O)O (stereo not drawn) [Compound L319N15-07]	–	–	–	–	> 200	> 200	> 100	> 200	> 200	2.1	no detectable inhibition
CCOC(=O)c1ccc2nc(NC(=O)C(c3ccccc3)S(=O)(=O)O)sc2c1 (stereo not drawn) [Compound L319N15-11]	–	–	–	–	–	1.7	28	70	55	3.03	–
